Reference: patent US20190389958A1, “ANTI-CXCR4 ANTIBODIES” (MSM Protein Technologies, Inc., priority 2017, published 2019)

What was measured:
Human U937 cells = test: Inhibition of SDF-1alpha-induced chemotaxis/cell migration (Example 9); format: cell-based; conditions: U-937, SDF-1alpha 3 nM, AMD3100 1 μM
Procedure: Human U937 cells were grown in RPMI-1640 medium with 10% FCS, then washed twice and incubated in serum-free RPMI-1640 at 37° C. for 3 hours (5% CO2). Starved […] cells were re-suspended in medium for chemotaxis (RPMI-1640 with 0.3% BSA) at 3*10^5 cells per ml and • a) incubated for 30 min at room temperature (not-pre-treated positive control for assay); • b) pre-treated with AMD 3100 at 1 μM concentration (positive control for chemotaxis inhibition) for 30 min at room temperature; or • c) pre-treated with a test IgG at 100 nM concentration for 30 min at room temperature.
Respective not-pre-treated or pre-treated U937 cells were then placed into the top wells of a microchemotaxis chamber (15,000 cells per well).
A polycarbonate filter with a […] pore diameter separated top and bottom chambers.
After incubation for one hour at 37° C. (5% CO2), the cell suspensions were removed from the top wells, and the wells were washed once with PBS. […] The number of migrated cells in each well was determined using a Guava PCA-96 cytometer. […]
Maximal SDF-1 induced migration was calculated as the difference in the number of migrated cells between conditions (al) and (a) in the Table immediately above. The percentage of migration inhibition for a test antibody was then calculated by reference to this maximal migration.

RA1 cells [1] = test: Antibody-dependent cell-mediated cytotoxicity (ADCC), LDH release (Example 10); format: cell-based, human; conditions: E:T ratio 20:1
Procedure: ADCC was measured with RA1 cells as the target cells (T) and using the CytoTox 96® Non-Radioactive Cytotoxicity Assay (Promega Corp., Fitchburg, Wis.)), which assay measures lactate dehydrogenase (LDH) release. A round-bottom 96-well culture plate was set up with the following control and experimental wells (100 microliter final volumes):
a. RA1 cells (for target cell spontaneous LDH release control) b. RA1 cells (for target cell maximum LDH release control) c. Culture medium (RPMI 1640 Medium (1X) without phenol red) used for volume correction control d. Culture medium (for culture medium background control) e. RA1 plus effector cells (E) (for target plus effector cell spontaneous LDH release control) f. Experimental wells with effector and target cells (10^5) with serial dilutions of each test IgG or without test IgG.
The plates were centrifuged at 1600 rpm for 2 minutes and incubated at 37° C. for 4 hours. One hour prior to supernatant harvest, 20 microliters of Lysis Solution (10×) were added to the conditions b) and c). The plates were centrifuged at 1600 rpm for 2 minutes, and 50 microliters of the supernatant from each well of the assay plates were transferred to corresponding wells of a flat-bottom 96-well enzymatic assay plate. Substrate Mix (50 microliters) was added to each well of the latter plate, and the plate (protected from light) was incubated for 30 minutes at room temperature. Finally, 50 microliters of Stop Solution were added to each well, and absorbance (OD values) was measured at 490 nm. Each condition was tested in triplicates.
Preliminary experiments had been conducted in order to determine the optimal E:T ratio. The data shown below were obtained at a 20:1 E:T ratio with 10^5 RA1 target cells. The effector cells used in this study were prepared as follows: human peripheral blood mononuclear cells (PBMCs) obtained from a healthy donor were isolated by means of density gradient centrifugation using Lymphocyte Separation Medium (ref. J15-004, Invitrogen Corp., Carlsbad, Calif.). PBMCs at 2×10^6 per mL were cultured for two days in RPMI 1640 with 10% FCS, penicillin/streptomycin and 100 units per mL of human recombinant IL-2 (obtained from Roussel-Uclaf) in a 37° C. humidified incubator (5% CO2).
ADCC percentages obtained at different concentrations of test IgGs were calculated with the formula % ADCC=(f−e)/(b−a)×100, i.e., % ADCC=(OD of Target+Effector cells +/−Test Mab −OD of Spontaneous Release of Target+Effector cells)/(OD Maximal Release Target cells −OD Spontaneous Release of Target cells)×100.

RA1 cells [2] = test: Anti-tumor activity in a SCID/RA1 xenograft model of Burkitt's lymphoma (Example 11); format: in vivo, SCID mice; conditions: for Mean Survival / Median Survival / Mice alive at the end of the study = day 81 / % Increased life span: 10 mg/kg, IV, Q4D × 6; for % Increased life span: ILS % = [(T-C)/C]×100 of median survival; for survival of mice (in words): SCID mice with RA1 cells
Procedure: The therapeutic effect of test antibodies was evaluated in an animal model of Burkitt's lymphoma. In the model used, systemic cancer in SCID mice causes hind limb paralysis and infiltrates all major organs.
Forty-eight hours before tumor cell injection, female SCID mice (7-9 weeks old, weighing 17-22 g) were irradiated with a γ-source (1.8 Gy, ^60Co). […] The tumor bearing mice were distributed on D4 into 10 groups of 10 mice each based on body weight using Vivo Manager® software (Biosystemes, Dijon, France). […] Treatment started on D4: mice were administered intravenously a 5 mg/kg or a 10 mg/kg dose of test antibody on days 4, 8, 12, 16, 20 and 24. The vehicle for injection was 10 mM Na-Citrate, 150 mM NaCl, 50 mM Arginine (pH 5.5). Body weights were measured and recorded twice weekly. Mean survival time was calculated for each group as the mean of the day of death, and median survival time was calculated for each group as the median of the day of death. The efficacy of each test antibody was judged by the increased life span value (ILS). ILS % was expressed as follows: ILS %=[(T-C)/C]×100. T was the median of the survival times of animals treated with each test antibody, and C was the median survival time of control animals treated with vehicle.

c1cc(CN2CCCNCCNCCCNCC2)ccc1CN1CCCNCCNCCCNCC1 [AMD3100] gave an inhibition at 1 µM (Human U937 cells) of 98%.

In the case of “Rituximab: CD20 antibody Mabthera, used as positive control [reference compound]”, the ADCC percentage (RA1 cells [1]; 0.0001 μg/mL) is reported as 3%, the ADCC percentage (RA1 cells [1]; 0.001 μg/mL) is reported as 8% and the ADCC percentage (RA1 cells [1]; 0.01 μg/mL) is reported as 27%. The ADCC percentage (RA1 cells [1]; 0.1 μg/mL) was 46%, the ADCC percentage (RA1 cells [1]; 1 μg/mL) was 60% and the “Mean Survival” value (RA1 cells [2]) was 63 days. For the same compound, the “Median Survival” value (RA1 cells [2]) was 62 days, the “Mice alive at the end of the study = day 81” value (RA1 cells [2]) was 0/10 and the “% Increased life span” value (RA1 cells [2]) was 130%. For the same compound, the “survival of mice (in words)” value (RA1 cells [2]) was “lived significantly longer than control mice”.

With “Xolair: isotypic control [reference compound]” the “Mean Survival” value (RA1 cells [2]) was 29 days, the “Median Survival” value (RA1 cells [2]) was 27 days and the “Mice alive at the end of the study = day 81” value (RA1 cells [2]) was 0/10. For the same compound, the “% Increased life span” value (RA1 cells [2]) was 0% and the “survival of mice (in words)” value (RA1 cells [2]) was “died of disseminated disease with severe weight loss or were terminated because they were moribund within four weeks”.
